Measurements taken from patent US20230399298A1 (priority 2020, published 2023).

Tests used:
[1] = Raw material harsh stability comparison test (60° C., HPLC); format: physicochemical
Method: (§1) The HPLC conditions used in the present disclosure were as follows, and the purity of donepezil ether palmitate hydrochloride was measured. • 1) detector: ultraviolet absorption photometer (measurement wavelength: 276 nm) • 2) column: YMC-Pack Pro C18 (4.6×250 mm, 5 μm) • 3) mobile phase A: Solution obtained by dissolving 1.88 g of sodium 1-hexanesulfonate in 1000 mL of purified water, and then adding 1.0 mL of phosphoric acid thereto, wherein each amount of reaction substances was accurately weighed. • 4) mobile phase B: acetonitrile
Experiments were conducted to evaluate the raw material harsh stability over time of donepezil ether palmitate (DEP) and donepezil ether palmitate hydrochloride (DEP HCl).
Specifically, in the experiments, each compound was stored under a condition of 60° C., and the chemical stability thereof was analyzed by HPLC (purity and increased amount of related substances).

[2] = Raw material accelerated stability comparison test (40° C., RH 75%, light-shielding seal, HPLC); format: physicochemical
Method: as §1
accelerated stability over time of donepezil ether palmitate (DEP) and donepezil ether palmitate hydrochloride (DEP HCl).
Specifically, in the experiments, each compound was stored in a light-shielding seal under accelerated conditions (40° C., RH 75%), and the chemical stability thereof was analyzed by HPLC (purity and increased amount of related substances).

[3] = Formulation stability comparison test (suspension in benzyl benzoate and castor oil, 60° C. and 80° C., HPLC); format: physicochemical
Method: as §1
Experiments were conducted to evaluate the formulation stability over time of donepezil ether palmitate (DEP) and donepezil ether palmitate hydrochloride (DEP HCl).
Specifically, each of DEP and DEP HCl was mixed with benzyl benzoate and castor oil to prepare a suspension, and then stored at 60° C. and 80° C. The chemical stability was analyzed by HPLC (purity and increased amount of related substances), and results thereof are shown in Table 4.

CCCCCCCCCCCCCCOCC(=O)OC1=C(CC2CCN(Cc3ccccc3)CC2)Cc2cc(OC)c(OC)cc21 [DEP, 2-((1-benzylpiperidin-4-yl)methyl)-5,6-dimethoxy-1H-inden-3-yl 2-(tetradecyloxy)acetate]
melting point: 55.1 °C | purity decreased by ([1]; 2nd week versus initial): about 18.60% | PT impurity ([1]; Day 1): 1.61% | Purity ([1]; Day 1): 95.44% | PT impurity ([1]; Day 3): 3.33% | Purity ([1]; Day 3): 92.05% | Purity ([1]; Initial): 99.76% | PT impurity ([1]; Week 2): 4.39% | Purity ([1]; Week 2): 81.16% | purity decreased by ([2]; 6th month versus initial): about 2.47% | PT impurity ([2]; Initial): 0.02% | Purity ([2]; Initial): 99.22% | PT impurity ([2]; Month 1): 0.04% | Purity ([2]; Month 1): 99.05% | PT impurity ([2]; Month 3): 0.08% | Purity ([2]; Month 3): 98.65% | PT impurity ([2]; Month 6): 0.13% | Purity ([2]; Month 6): 96.75% | Purity ([3]; Day 1 at 80° C.): 97.96% | Purity ([3]; Initial): 99.79% | Purity ([3]; Week 1 at 60° C.): 97.54%
